From paper PMC5428013, “Peptide-Au Clusters Induced Tumor Cells Apoptosis via Targeting Glutathione Peroxidase-1: The Molecular Dynamics Assisted Experimental Studies” (Scientific Reports, 2017)
Entries after “also recorded” stand apart in the source; their conditions may differ.

How the values were obtained:
GPx-1 [1] = assay: Cellular GPx-1 activity in treated A549 cells; type: cell-based, human; conditions: 48 h
Description: (§1) A549 cells were prior seeded on 6-well plate (at the density of 1 × 10^5 cells/well) for 24 h. Then the medium was discarded and fresh culture medium with Au25P1_9 at different doses was added to make cells exposed to final Au doses at 0, 100, 200, 400 and 800 μM, respectively. After another 48 h incubation, the cells were washed thrice with PBS and lysed by cell lysis buffer containing 1 mM PMSF for 15 min on a shaker at 4 °C. The lysed cells were collected and centrifuged for 20 min at 12,000 g to get total protein of cells. The protein dose of each sample was quantified by BCA Protein Assay Kit and the GPx-1 activity of peptide-Au clusters treated A549 cells was measured by GPx Activity Colorimetric Assay Kit, respectively. For the control experiments, a series of Au doses of Au25P1_9 at 0, 5, 25, 100, 400 μM were incubated with the GPx-1 containing cell lysate of A549 cells for 10 min and the GPx-1 activity of theses samples was also measured. The GPx-1 activity of untreated samples was set as 100%, and that of peptide-Au clusters treated samples were expressed as a relative percentage of untreated ones.

GPx-1 [2] = assay: GPx-1 activity in A549 cell lysate; type: biochemical, human; conditions: Au dose 0, 5, 25, 100, 400 μM, 10 min
Description: as §1

PARP = assay: Cleaved PARP level, western blotting; type: cell-based, human; conditions: serial Au doses (0, 100, 200, 400, 800 μM), 48 h
Description: The expression of GPx-1, caspase-3 and PARP from Au25P1_9 treated A549 cells were analyzed by western blotting. A549 cells were prior seeded on 6-well plate (at the density of 1 × 10^5 cells/well) for 24 h. Then the medium was discarded and fresh culture medium with Au25P1_9 at different doses was added to make cells exposed to final Au doses at 0, 100, 200, 400 and 800 μM, respectively. After another 48 h incubation, the cells were harvested and lysed by cell lysis buffer for Western and IP (containing 20 mM Tris-HCl, pH7.5, 150 mM NaCl, 1% Triton X-100, sodium pyrophosphate, β-glycerophosphate, EDTA, Na3VO4 and leupeptin), protease inhibitor cocktail tablet and 1 mM PMSF for 15 min on a shaker at 4 °C. The lysed cells were collected and centrifuged for 15 min at 12,000 g to get total protein of cells. The protein dose of each sample was prior quantified, and then loading buffer was added. After boiling for 5 min, the protein samples with equal amount were separated on 12% SDS polyacrylamide gel electrophoresis and then transferred onto the polyvinylidene difluoride (PVDF) membrane. Membrane was blocked by 5% nonfat dried milk prepared in tris(hydroxymethyl)amin omethane-NaCl-Tween 20 (TBST) at room temperature for 1 h, and then incubated with primary antibodies specific to β-actin, Caspase-3, PARP and GPx-1 at 4 °C overnight, respectively. […]

A549 cells [3] = assay: Apoptosis evaluation, Annexin V-FITC/PI dual staining; type: cell-based, human; conditions: 48 h
Description: Apoptosis detection with Annexin V-FITC/PI fluorescence dual staining was carried out by flow cytometry. Briefly, about 2 mL of 1 × 10^5 cells/mL of A549 cells were seeded in 6-well plate for 24 h before treatment with Au25P1_9 at different Au doses. The cells were treated with Au25P1_9 (Au dose at 0, 100, 200, 400 and 800 μM) for 48 h, respectively. Then culture medium and cells in each well were collected and centrifuged at 1200 rpm for 3 min. The supernatant was discarded and the cells were washed twice with PBS. 195 μL Annexin V-FITC binding buffer was added to re-suspend the cells at a dose of ~5 × 10^5 cells/mL in 1.5 mL Eppendorf tube. 5 μL Annexin V-FITC and 10 μL PI stains were added into each cell suspension, respectively. The tubes were incubated at room temperature under darkness for exactly 15 min. The fluorescence of the cells was determined immediately with flow cytometer. Cells at the early stage of apoptotic process were stained with the Annexin V-FITC alone. Necrotic cells were stained by both the Annexin V-FITC and PI. […] So, the percentage of apoptotic and necrosis cells can be analyzed by Cflow software.

A549 cells [4] = assay: Cell viability assay (CCK-8), A549; type: cell-based, human; conditions: 48 h; for cell viability suppression by peptide-Au clusters (words): A549, Au dose 0, 50, 100, 200, 400, 800 µM
Description: (§2) Briefly, cells were prior cultured on 96-well plates (at the density of 5 × 10^3 cells/well) for 24 h to allow cells attachment. The cells were treated with different doses of these free peptides (0, 1, 4, 16, 64, 256, 1024 µM) and peptide-Au clusters (0, 50, 100, 200, 400, 800 µM in Au dose) for 48 h, respectively. The cells were washed three times with PBS and then incubated with fresh growth medium containing 10% (v/v) CCK-8 reagent for 1 h at 37 °C for cell viability assay. The absorbance was measured at 450 nm by using a microplate reader (SpectraMAX M2, Sunnyvale, California). Cell viability of untreated cells was set as 100%, and that of treated cells were expressed as a relative percentage of untreated cells. All data were shown as mean percentages ± standard deviation from three independent experiments.

Hela cells = assay: Cell viability assay (CCK-8), Hela; type: cell-based; conditions: same condition as A549
Description: as §2

CCYGGPEEEEEVG [Au25P1_9, Au25 cluster coated by nine P1 peptides (…)]
cellular GPx-1 activity (relative to untreated = 100%) (GPx-1 [1]; 800 μM of Au): 27% | cellular GPx-1 activity (GPx-1 [1]; Au dose 0, 100, 200, 400, 800 μM): significantly decreases as Au25P1_9 dose increase; also recorded: the most effective candidate for suppression of GPx-1 activity in buffer and cells | GPx-1 activity in cell lysate (GPx-1 [2]): suppressed via an Au dose dependent manner | cleaved PARP level (PARP): Au dose-dependent increase of cleaved caspases-3 and cleaved PARP levels | cell apoptosis ratio (A549 cells [3]; A549, Au25P1_9 dose 100 μM (Au)): 5.8% | cell apoptosis ratio (A549 cells [3]; A549, Au25P1_9 dose 800 μM (Au)): 15.2% | cell apoptosis dose dependence (A549 cells [3]; A549, Au dose 0, 100, 200, 400, 800 μM): dose-dependent manner | cell viability suppression by peptide-Au clusters (words) (A549 cells [4]): can suppress cell viability | cell viability suppression by peptide-Au clusters (words) (A549 cells [4]; listed as Au25P19): exhibits the best suppression capacity for A549 cell viability | cell viability (relative to untreated = 100%) (A549 cells [4]; A549, Au dose of 800 μM, CCK-8, mean from three independent experiments): 40% | change of cell viability (Hela cells): almost negligible
